{"source": "patent US12138254B2", "about": "“Chronic nightly dosing of lasmiditan for migraine prevention” (Eli Lilly and Company, priority 2018, dated 2024)", "key": {"[1]": {"test_system": "dural plasma protein extravasation", "assay": "Trigeminal stimulation-induced dural plasma protein extravasation (PPE) in rats", "assay_type": "in vivo, Sprague-Dawley rats", "description": "Migraine is a painful condition thought to involve neurogenic inflammation of the dural membrane and activation of the trigeminal nervous system. The 5-HT1F receptor is widely expressed in the CNS and peripheral nerves, including the trigeminal ganglia, dorsal root ganglia and trigeminal nucleus caudalis. Plasma protein extravasation (PPE), one component of neurogenic inflammation, can be induced in the dura of rats by electrically stimulating the trigeminal ganglion. Considering the role of the trigeminal nerve in the physiology of migraine, this study is useful to characterize the ability of lasmiditan-hemisuccinate to block plasma protein extravasation in the dura of rats following electrical stimulation of the trigeminal ganglion.\nTo investigate the potential of lasmiditan to modify the dysfunction in the target tissue, the duration of effect following a single oral dose of lasmiditan-hemisuccinate was also determined. Electrical stimulation of the trigeminal ganglion of rats and guinea pigs can be used to induce neurogenic inflammation in the meninges (dura). Briefly, unilateral electrical stimulation of either the left or right trigeminal ganglion using electrodes implanted stereotaxically is used to induce ipsilateral neurogenic inflammation and the increased extravasation of plasma proteins.\nLasmiditan-hemisuccinate is dissolved in sterile water. All doses of lasmiditan are reported as free base equivalent doses, accounting for the weight of the salt. Envigo Sprague-Dawley, Sprague-Dawley male rats (250-350 grams, n=4/group) are fasted overnight prior to dosing. The animals are orally gavaged (2 mL/kg dose volume) with test compound or vehicle one hour prior to stimulation time and returned to their cages with only water available. Approximately 50 minutes post-dosing, the rats are anesthetized with Nembutal (65 mg/kg, ip.) and implanted with stainless steel stimulating electrodes (Rhodes Medical Systems, Inc.) to a depth of 9.2 mm. from the dura. The femoral vein is exposed and fluorescein isothiocyanate-labeled bovine serum albumin (FITC-BSA) (20 mg/kg, iv.), is injected into the femoral vein 2 minutes prior to stimulation. The FITC-BSA functions as a marker for protein extravasation. The left trigeminal ganglion is stimulated for 5 minutes at a current intensity of 1.0 mA (5 Hz, 5 msec pulse duration) with a Model S48 Grass Instrument Stimulator with PSIU6 photoelectric isolation unit (Grass-Telefactor). Five minutes following stimulation, a blood sample is collected by cardiac puncture and the rats are sacrificed by exsanguination with 40 ml of saline. One milliliter of blood is collected and placed in a 1.5 ml EDTA coated tube (Fisher Cat. #540734) on ice. Plasma is separated via centrifugation at 10,000 rpm (941 g) for thirty minutes at 4° C. The top of the skull is removed to collect the brain and dural membranes. The brain and plasma samples are frozen at −80° C. until thawed for compound quantification. The membrane samples are removed from both hemispheres, rinsed with water, and spread flat on microscope slides. The slides are dried for 15 minutes on a slide warmer, then the tissues are cover-slipped with a 70% glycerol/water solution. A fluorescence microscope (Zeiss) equipped with a grating monochromator and a spectrophotometer is used to quantify the amount of FITC-BSA dye in each dural sample. The extravasation induced by electrical stimulation of the trigeminal ganglion is an ipsilateral effect (i.e. occurs only on the side of the dura in which the trigeminal ganglion was stimulated). This allows the other (unstimulated) half of the dura to be used as the control. The ratio of extravasation in the dura from the stimulated side versus the unstimulated side is calculated and reported as the extravasation ratio for each animal. The mean extravasation ratio and standard error of the mean (SEM) are calculated for each treatment group. Controls yield a ratio of approximately 1.8. […]"}, "patients with migraine [2]": {"test_system": "patients with migraine", "assay": "GLADIATOR open-label Phase 3 study, long-term intermittent lasmiditan; MIDAS interim analysis", "assay_type": "in vivo, human", "details": "for change in MIDAS migraine disability, headache days and headache pain/severity over time: lasmiditan 100 mg or 200 mg, up to 12 months", "description": "The placebo-controlled Phase 3 studies SAMURAI (NCT02439320) and SPARTAN (NCT02605174) evaluated lasmiditan 50 mg [SPARTAN only], 100 mg and 200 mg. […] GLADIATOR (NCT02565186) is a prospective randomized open-label Phase 3 study to evaluate long-term intermittent use of lasmiditan (100 mg or 200 mg) for acute treatment of migraine. An interim analysis of the effects of lasmiditan on migraine disability assessed with the MIDAS scale in GLADIATOR is described below, and has provided surprising and unexpected evidence of persistent beneficial effects in migraine patients.\nPatients who completed SAMURAI or SPARTAN were offered participation in GLADIATOR with randomization to lasmiditan 100 mg or lasmiditan 200 mg which represents an uncontrolled, open-label study. […] This interim analysis includes patients with MIDAS score data at baseline of GLADIATOR and post-baseline assessments. The analysis presented is based on the MIDAS questionnaire administered at baseline and at months 3, 6, 9 and 12. An additional analysis was also conducted in the subgroup of patients who completed 12 months. Changes were modelled using a mixed model repeated measures analysis MIDAS measures lost time due to migraine in days over 3 months. Domains included are activity limitations at work, household work or family, social and leisure activity.\nKey inclusion criteria were patients who were eligible for SAMURAI or SPARTAN and had at least moderate migraine disability (MIDAS score ≥11). Patients were randomized 1:1 for acute treatment of migraine with either lasmiditan 100 mg for up to 12 months, or lasmiditan 200 mg for up to 12 months. Patients used lasmiditan as the first treatment for each new migraine attack (≤4 hours of Migraine pain onset). […] Assessments of safety and efficacy were conducted, including MIDAS questionnaires at baseline and months 3, 6, 9 and 12. MIDAS Questionnaire (See for example Stewart et al., Neurology 1999; 53:988-94, Stewart et al., Neurology 2001; 56: S20-8) The sum of Questions 1-5 below represents the Total MIDAS score. • 1. […]"}, "patients with migraine [3]": {"test_system": "patients with migraine", "details": "cited from earlier work; for pain freedom (primary) and MBS freedom (key secondary) at 2 hours vs placebo: Phase 3 trials, all doses (50, 100, 200 mg); for proportion of patients headache pain-free / proportion of patients most bothersome symptom (MBS)-free: lasmiditan 200 mg, 2 hours post-first dose, p<0.001"}}, "note": "“Also recorded” adds a separate entry of the source. Like-named read-outs stand apart in the source and are kept apart here."}
{"molecule": "CN1CCC(C(=O)c2cccc(NC(=O)c3c(F)cc(F)cc3F)n2)CC1", "note": "[Lasmiditan, 2,4,6-trifluoro-N-[6-(1-methyl-piperidin-4-ylcarbonyl)-pyridin-2-yl]-benzamide]", "values": [{"measurement": "inhibition of dural plasma protein extravasation vs vehicle", "setting": "[1]; 0.1 mg/kg po, 1 hour post-dose", "result": "non-efficacious"}, {"measurement": "inhibition of dural plasma protein extravasation vs vehicle", "setting": "[1]; single 10 mg/kg po, 24 hours post-dose", "result": "equally efficacious"}, {"measurement": "inhibition of dural plasma protein extravasation vs vehicle", "setting": "[1]; single 10 mg/kg po, 48 hours post-dose", "result": "not at 48 hours"}, {"measurement": "difference between lasmiditan 100 mg and 200 mg doses, any outcome", "setting": "patients with migraine [2]; GLADIATOR MIDAS outcomes", "result": "no significant differences"}, {"measurement": "change in MIDAS migraine disability, headache days and headache pain/severity over time", "setting": "patients with migraine [2]", "result": "decreases over time"}, {"measurement": "change in MIDAS migraine disability, headache days and headache pain/severity over time", "setting": "patients with migraine [2]; listed as lasmiditan", "result": "large, clinically meaningful improvement; also recorded: a decrease over the 12-month treatment period"}, {"measurement": "most frequently reported / most common TEAEs", "setting": "patients with migraine [3]; Phase 3 studies, b6: ≥2% and greater than placebo after the first dose", "result": "dizziness, paresthesia, somnolence, fatigue, and nausea"}, {"measurement": "severity of TEAEs", "setting": "patients with migraine [3]; Phase 3 studies", "result": "mild or moderate"}, {"measurement": "pain freedom (primary) and MBS freedom (key secondary) at 2 hours vs placebo", "setting": "patients with migraine [3]", "result": "statistically significant superiority over placebo"}, {"measurement": "pain freedom (primary) and MBS freedom (key secondary) at 2 hours vs placebo", "setting": "patients with migraine [3]; listed as lasmiditan", "result": "significantly higher rates"}, {"measurement": "proportion of patients headache pain-free", "setting": "patients with migraine [3]; SAMURAI, placebo 15.3%", "result": 32.2, "unit": "%"}, {"measurement": "proportion of patients most bothersome symptom (MBS)-free", "setting": "patients with migraine [3]; SAMURAI, placebo 29.5%", "result": 40.7, "unit": "%"}, {"measurement": "proportion of patients headache pain-free", "setting": "patients with migraine [3]; SPARTAN, placebo 21.3%", "result": 38.8, "unit": "%"}, {"measurement": "proportion of patients most bothersome symptom (MBS)-free", "setting": "patients with migraine [3]; SPARTAN, placebo 33.5%", "result": 48.7, "unit": "%"}, {"measurement": "headache pain-free and MBS-free at 2 hours compared to placebo", "setting": "patients with migraine [3]; lasmiditan 100 mg, 50 mg dose groups", "result": "significance was also noted"}]}
